Measured values from US20240083890A1, “MACROCYCLIC BRANCHED 3-FLUORO-BUT-3-ENAMIDES AS INHIBITORS OF MCL-1” (JANSSEN PHARMACEUTICA NV, priority 2020, published 2024).
Like-named read-outs stand apart in the source and are kept apart here.

Legend:
Mcl-1 = Mcl-1 (Homo sapiens (Human), UniProt Q07820); assay: Terbium labeled Mcl-1 HTRF binding assay, displacement of Cy5-labeled BIM BH3 peptide; details: Ki=IC50/(1+[L]/Kd), [L]=8 nM, Kd=10 nM; 25 pM Tb-Mcl-1, 8 nM Cy5 Bim peptide, 60 min; read-out: Tb-MCL1 Ki
Procedure: Terbium labeled Myeloid Cell Leukemia 1(Mcl-1) homogeneous time-resolved fluorescence (HTRF) binding assay utilizing the BIM BH3 peptide (H2N—(C/Cy5Mal) WIAQELRRIGDEFN-OH) as the binding partner for Mcl-1.
This assay evaluated inhibition of the BH3 domain: Mcl-1 interaction by measuring the displacement of Cy5-labeled BIM BH3 peptide (H2N—(C/Cy5Mal) WIAQELRRIGDEFN-OH) in the HTRF assay format.
The following assay and stock buffers were prepared for use in the assay: (a) Stock buffer: 10 mM Tris-HCl, pH=7.5+150 mM NaCl, filtered, sterilized, and stored at 4° C.; and (b) 1× assay buffer, where the following ingredients were added fresh to stock buffer: 2 mM dithiothreitol (DTT), 0.0025% Tween-20, 0.1 mg/mL bovine serum albumin (BSA). The 1× Tb-Mcl-1+Cy5 Bim peptide solution was prepared by diluting the protein stock solution using the 1× assay buffer (b) to 25 pM Tb-Mcl-1 and 8 nM Cy5 Bim peptide.
Using the Acoustic ECHO, 100 nL of 100× test compound(s) were dispensed into individual wells of a white 384-well Perkin Elmer Proxiplate, for a final compound concentration of 1× and final DMSO concentration of 1%. Inhibitor control and neutral control (NC, 100 nL of 100% DMSO) were stamped into columns 23 and 24 of assay plate. Into each well of the plate was then dispensed 10 μL of the 1× Tb-Mcl-1+Cy5 Bim peptide solution. The plate was centrifuged with a cover plate at 1000 rpm for 1 minute, then incubated for 60 minutes at room temperature with plates covered.
The TR-FRET signal was read on an BMG PHERAStar FSX MicroPlate Reader at room temperature using the HTRF optic module (HTRF: excitation: 337 nm, light source: laser, emission A: 665 nm, emission B: 620 nm, integration start: 60 μs, integration time: […]).
The BMG PHERAStar FSX MicroPlate Reader was used to measure fluorescence intensity at two emission wavelengths—665 nm and 620 nm—and report relative fluorescence units (RFU) for both emissions, as well as a ratio of the emissions (665 nm/620 nm)*10,000. The RFU values were normalized to percent inhibition as follows:
% inhibition (((NC−IC)−(compound-IC))/(NC−IC))*100
where IC (inhibitor control, low signal)=mean signal of 1× Tb-MCl-1+Cy5 Bim peptide+inhibitor control or 100% inhibition of Mel-1; NC (neutral control, high signal)=mean signal 1× Tb-MCI-1+Cy5 Bim peptide with DMSO only or 0% inhibition
An 11-point dose response curve was generated to determine IC50 values (using GenData) based on the following equation:
Y=Bottom+(Top-Bottom)/(1+10^((log IC50−X)*HillSlope))
where Y=% inhibition in the presence of X inhibitor concentration; Top=100% inhibition derived from the IC (mean signal of Mcl-1+inhibitor control); Bottom=0% inhibition derived from the NC (mean signal of Mcl-1+DMSO); Hillslope=Hill coefficient; and IC50=concentration of compound with 50% inhibition in relation to top/neutral control (NC).
In this assay [L]=8 nM and Kd=10 nM
Representative compounds of the present invention were tested according to the procedure as described above, with results as listed in the Table below (n.d. means not determined).

[1] = test system: MOLP-8 human multiple myeloma cell line; assay: Caspase-Glo 3/7 apoptosis induction assay in MOLP-8 cells; format: cell-based; details: caspase-3/7 activation, 2 hours incubation at 37° C., averaged over all runs on all batches, read-out: MOLP8 AC50
Excerpt: MCL-1 is a regulator of apoptosis and is highly over-expressed in tumor cells that escape cell death. The assay evaluates the cellular potency of small-molecule compounds targeting regulators of the apoptosis pathway, primarily MCL-1, Bfl-1, Bcl-2, and other proteins of the Bcl-2 family. Protein-protein inhibitors disrupting the interaction of anti-apoptotic regulators with BH3-domain proteins initiate apoptosis.
The Caspase-Glo® 3/7 Assay is a luminescent assay that measures caspase-3 and -7 activities in purified enzyme preparations or cultures of adherent or suspension cells. The assay provides a proluminescent caspase-3/7 substrate, which contains the tetrapeptide sequence DEVD. This substrate is cleaved to release aminoluciferin, a substrate of luciferase used in the production of light. Addition of the single Caspase-Glo® 3/7 Reagent in an “add-mix-measure” format results in cell lysis, followed by caspase cleavage of the substrate and generation of a “glow-type” luminescent signal.
This assay uses the MOLP-8 human multiple myeloma cell line, which is sensitive to MCL-1 inhibition.
Cell cultures were maintained between 0.2 and 2.0×10^6 cells/mL. The cells were harvested by collection in 50 mL conical tubes. The cells were then pelleted at 500 g for 5 mins before removing supernatant and resuspension in fresh pre-warmed culture medium. The cells were counted and diluted as needed.
The assay reagent was prepared by transferring the buffer solution to the substrate vial and mixing. The solution may be stored for up to 1 week at 4° C. with negligible loss of signal.
Compounds were delivered in assay-ready plates (Proxiplate) and stored at −20° C.
Assays always include 1 reference compound plate containing reference compounds. The plates were spotted with 40 nL of compounds (0.5% DMSO final in cells; serial dilution; 30 μM highest conc. 1/3 dilution, 10 doses, duplicates). The compounds were used at room temperature and 4 μL of pre-warmed media was added to all wells except column 2 and 23. The negative control was prepared by adding 1% DMSO in media. The positive control was prepared by adding the appropriate positive control compound in final concentration of 60 μM in media. The plate was prepared by adding 4 μL negative control to column 23, 4 μL positive control to column 2, and 4 μL cell suspension to all wells in the plate. The plate with cells was then incubated at 37° C. for 2 hours. The assay signal reagent is the Caspase-Glo solution described above, and 8 μL was added to all wells. The plates were then sealed and measured after 30 minutes.
The activity of a test compound was calculated as percent change in apoptosis induction as follows: • LC=median of the Low Control values • =Central Reference in Screener • =DMSO • =0% • HC=Median of the High Control values • =Scale Reference in Screener • =30 μM of positive control • =100% apoptosis induction
% Effect (AC50)=100−((sample-LC)/(HC-LC))*100
% Control=(sample/HC)*100
% Control min=((sample-LC)/(HC-LC))*100
Table: Measured AC50 for Representative Compounds of Formula (I). Averaged values are reported over all runs on all batches of a particular compound.

Mcl-1, sequence (Q07820 whole entry): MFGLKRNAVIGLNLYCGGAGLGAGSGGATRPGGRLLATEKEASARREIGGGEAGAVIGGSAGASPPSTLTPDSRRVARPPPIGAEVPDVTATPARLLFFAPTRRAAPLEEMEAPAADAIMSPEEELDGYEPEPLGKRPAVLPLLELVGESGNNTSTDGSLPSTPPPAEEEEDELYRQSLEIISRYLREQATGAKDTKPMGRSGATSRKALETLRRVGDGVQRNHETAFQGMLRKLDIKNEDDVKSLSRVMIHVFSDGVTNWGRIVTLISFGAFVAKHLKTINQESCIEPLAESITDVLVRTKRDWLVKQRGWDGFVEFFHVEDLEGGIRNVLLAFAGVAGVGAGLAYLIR

Compound | Ki (Mcl-1) [nM] | AC50 ([1]; Homo sapiens, MOLP-8) [nM] | AC50 [1] [nM]
C[C@@H]1[C@@H](C)C/C=C(\F)C(C(O)COCC2CCOCC2)N2CC[C@H]2CN2C[C@@]3(CCCc4cc(Cl)ccc43)COc3ccc(cc32)C(=O)NS1(=O)=O (single isomer, unassigned) [Compound 5] | 0.23 | 238 | –
C[C@@H]1[C@@H](C)C/C=C(\F)[C@H]([C@@H](C)O)N2CC[C@H]2CN2C[C@@]3(CCCc4cc(Cl)ccc43)COc3ccc(cc32)C(=O)NS1(=O)=O [Compound 1] | 0.326 | 116 | –
C[C@H](O)[C@H]1/C(F)=C/C[C@H](C)[C@@H](C)S(=O)(=O)NC(=O)c2ccc3c(c2)N(C[C@@H]2CCN21)C[C@@]1(CCCc2cc(Cl)ccc21)CO3 [Compound 2] | 0.106 | 122 | –
C[C@@H]1[C@@H](C)C/C=C(\F)[C@H]([C@@H](C)O)N2CCC[C@H]2CN2C[C@@]3(CCCc4cc(Cl)ccc43)COc3ccc(cc32)C(=O)NS1(=O)=O [Compound 3] | 1.56 | 217 | –
C[C@H](O)[C@H]1/C(F)=C/C[C@H](C)[C@@H](C)S(=O)(=O)NC(=O)c2ccc3c(c2)N(C[C@@H]2CCCN21)C[C@@]1(CCCc2cc(Cl)ccc21)CO3 [Compound 4] | 0.236 | 238 | –
C[C@@H]1[C@@H](C)C/C=C(\F)[C@H]([C@@H](O)COCC2CCOCC2)N2CC[C@H]2CN2C[C@@]3(CCCc4cc(Cl)ccc43)COc3ccc(cc32)C(=O)NS1(=O)=O [Compound 6] | 0.053 | 68.5 | –
COC[C@]1([C@@H]2COC(C)(C)O2)/C(F)=C/C[C@H](C)[C@@H](C)S(=O)(=O)NC(=O)c2ccc3c(c2)N(C[C@@H]2CCN21)C[C@@]1(CCCc2cc(Cl)ccc21)CO3 [Compound 7] | 0.221 | 134 | –
CO[C@@H](CO)[C@@]1(CO)/C(F)=C/C[C@H](C)[C@@H](C)S(=O)(=O)NC(=O)c2ccc3c(c2)N(C[C@@H]2CCN21)C[C@@]1(CCCc2cc(Cl)ccc21)CO3 [Compound 8] | 0.357 | 3960 | –
C[C@@H]1[C@@H](C)C/C=C(\F)[C@@]2(COC(C)(C)OC[C@@H]2O)N2CC[C@H]2CN2C[C@@]3(CCCc4cc(Cl)ccc43)COc3ccc(cc32)C(=O)NS1(=O)=O [Compound 9] | 0.04 | 64.8 | –
C[C@@H]1[C@@H](C)C/C=C(\F)[C@](CO)([C@@H]2COC(C)(C)O2)N2CC[C@H]2CN2C[C@@]3(CCCc4cc(Cl)ccc43)COc3ccc(cc32)C(=O)NS1(=O)=O [Compound 10] | – | 553 | –
C[C@@H]1[C@@H](C)C/C=C(\F)[C@@]2(COC(C)(C)OC[C@@H]2O)N2CCC[C@H]2CN2C[C@@]3(CCCc4cc(Cl)ccc43)COc3ccc(cc32)C(=O)NS1(=O)=O [Compound 11] | 0.172 | 96.5 | –
CO[C@H]1COC(C)(C)OC[C@@]12/C(F)=C/C[C@H](C)[C@@H](C)S(=O)(=O)NC(=O)c1ccc3c(c1)N(C[C@@H]1CCCN12)C[C@@]1(CCCc2cc(Cl)ccc21)CO3 [Compound 12] | 0.359 | 885 | –
C[C@@H]1[C@@H](C)C/C=C(\F)C2(COC(C)(C)OC2)N2CC[C@H]2CN2C[C@@]3(CCCc4cc(Cl)ccc43)COc3ccc(cc32)C(=O)NS1(=O)=O [Compound 13] | 1.77 | 1110 | –
C[C@@H]1[C@@H](C)C/C=C(\F)C2(COC(C)(C)OC2)N2CCC[C@H]2CN2C[C@@]3(CCCc4cc(Cl)ccc43)COc3ccc(cc32)C(=O)NS1(=O)=O [Compound 14] | 0.241 | 759 | –
COC[C@H](OC)[C@@]1(COC)/C(F)=C/C[C@H](C)[C@@H](C)S(=O)(=O)NC(=O)c2ccc3c(c2)N(C[C@@H]2CCN21)C[C@@]1(CCCc2cc(Cl)ccc21)CO3 [Compound 15] | – | 503 | –
COC[C@H](O)[C@@]1(COC)/C(F)=C/C[C@H](C)[C@@H](C)S(=O)(=O)NC(=O)c2ccc3c(c2)N(C[C@@H]2CCN21)C[C@@]1(CCCc2cc(Cl)ccc21)CO3 [Compound 16] | 0.072 | 222 | –
C[C@@H]1[C@@H](C)C/C=C(\F)[C@H]([C@@H](C)O)N2CCC[C@H]2CN2C[C@@]3(CCOc4cc(Cl)ccc43)COc3ccc(cc32)C(=O)NS1(=O)=O [Compound 17] | 2.41 | 3350 | –
C[C@H](O)[C@@H]1/C(F)=C/C[C@H](C)[C@@H](C)S(=O)(=O)NC(=O)c2ccc3c(c2)N(C[C@@H]2CCCN21)C[C@@]1(CCOc2cc(Cl)ccc21)CO3 [Compound 18] | 0.606 | – | 3420
C[C@@H]1[C@@H](C)C/C=C(\F)[C@H]([C@@H](O)Cn2cccn2)N2CC[C@H]2CN2C[C@@]3(CCCc4cc(Cl)ccc43)COc3ccc(cc32)C(=O)NS1(=O)=O [Compound 19] | 0.049 | 126 | –
C[C@@H]1[C@@H](C)C/C=C(\F)[C@H]([C@@H](O)COC2CCOCC2)N2CCC[C@H]2CN2C[C@@]3(CCCc4cc(Cl)ccc43)COc3ccc(cc32)C(=O)NS1(=O)=O [Compound 20] | 0.052 | 272 | –
C[C@@H]1[C@@H](C)C/C=C(\F)[C@H]([C@@H](O)CN2CCOCC2)N2CC[C@H]2CN2C[C@@]3(CCCc4cc(Cl)ccc43)COc3ccc(cc32)C(=O)NS1(=O)=O [Compound 21] | 0.051 | 87.9 | –
C[C@@H]1[C@@H](C)C/C=C(\F)[C@H]([C@@H](O)CN2CCOCC2)N2CCC[C@H]2CN2C[C@@]3(CCCc4cc(Cl)ccc43)COc3ccc(cc32)C(=O)NS1(=O)=O [Compound 22] | 0.08 | 239 | –
COCCN(CCOC)C[C@H](O)[C@H]1/C(F)=C/C[C@H](C)[C@@H](C)S(=O)(=O)NC(=O)c2ccc3c(c2)N(C[C@@H]2CCN21)C[C@@]1(CCCc2cc(Cl)ccc21)CO3 [Compound 23] | 0.023 | 69.6 | –
